In ChEMBL document CHEMBL3044672, “N9- and N7-(Chloromethyl Phenymethyl)Chloropurine Derivatives from , '-Dichloroxylenes: Synthesis and Anticancer Activity” (2005):

Legend:
Format in all cases: functional
TK-10 = assay: Cytotoxicity against Homo sapiens (human) TK10 cells after 48 hr by sulforhodamine B assay; details: TK-10, 48 h; for CC50: read-out: LC50 (the source's name)
KM12 = assay: Cytotoxicity against Homo sapiens (human) KM12 cells after 48 hr by sulforhodamine B assay; details: KM12, 48 h; for CC50: read-out: LC50 (the source's name)
M14 = assay: Cytotoxicity against Homo sapiens (human) M14 cells after 48 hr by sulforhodamine B assay; details: M14, 48 h
MCF7 [1] = assay: Cytotoxicity against Homo sapiens (human) MCF7 cells after 48 hr by sulforhodamine B assay; details: MCF7, 48 h
SK-MEL-5 = assay: Cytotoxicity against Homo sapiens (human) SK-MEL-5 cells after 48 hr by sulforhodamine B assay; details: SK-MEL-5, 48 h
NCI-H226 = assay: Cytotoxicity against Homo sapiens (human) NCI-H226 cells after 48 hr by sulforhodamine B assay; details: NCI-H226, 48 h; for CC50: read-out: LC50 (the source's name)
RPMI-8226 = assay: Cytotoxicity against Homo sapiens (human) RPMI8226 cells after 48 hr by sulforhodamine B assay; details: RPMI-8226, 48 h
LOX IMVI = assay: Cytotoxicity against Homo sapiens (human) LOXIMVI cells after 48 hr by sulforhodamine B assay
A549 = assay: Cytotoxicity against Homo sapiens (human) A549 cells after 48 hr by sulforhodamine B assay; details: A549, 48 h; for CC50: read-out: LC50 (the source's name)
[2] = Cytotoxicity against Homo sapiens (human) NCI-ADR-RES cells after 48 hr by sulforhodamine B assay
HT-29 = assay: Cytotoxicity against Homo sapiens (human) HT-29 cells after 48 hr by sulforhodamine B assay; details: HT-29, 48 h; for CC50: read-out: LC50 (the source's name)
NCI-H23 = assay: Cytotoxicity against Homo sapiens (human) NCI-H23 cells after 48 hr by sulforhodamine B assay; details: NCI-H23, 48 h; for CC50: read-out: LC50 (the source's name)
MDA-MB-435 = assay: Cytotoxicity against Homo sapiens (human) MDA-MB-435 cells after 48 hr by sulforhodamine B assay; details: MDA-MB-435, 48 h
SK-MEL-28 = assay: Cytotoxicity against Homo sapiens (human) SK-MEL-28 cells after 48 hr by sulforhodamine B assay; details: SK-MEL-28, 48 h
IGROV-1 = assay: Cytotoxicity against Homo sapiens (human) IGROV1 cells after 48 hr by sulforhodamine B assay; details: IGROV-1, 48 h
UACC-257 = assay: Cytotoxicity against Homo sapiens (human) UACC257 cells after 48 hr by sulforhodamine B assay; details: UACC-257, 48 h
NCI-H460 [3] = assay: Cytotoxicity against Homo sapiens (human) NCI-H460 cells after 48 hr by sulforhodamine B assay; details: NCI-H460, 48 h; for CC50: read-out: LC50 (the source's name)
A498 = assay: Cytotoxicity against Homo sapiens (human) A498 cells after 48 hr by sulforhodamine B assay; details: A498, 48 h
UO-31 = assay: Cytotoxicity against Homo sapiens (human) UO31 cells after 48 hr by sulforhodamine B assay; details: UO-31, 48 h
U-251 = assay: Cytotoxicity against Homo sapiens (human) U251 cells after 48 hr by sulforhodamine B assay; details: U-251, 48 h
Hs-578T = assay: Cytotoxicity against Homo sapiens (human) Hs 578T cells after 48 hr by sulforhodamine B assay
HCT-15 = assay: Cytotoxicity against Homo sapiens (human) HCT15 cells after 48 hr by sulforhodamine B assay; details: HCT-15, 48 h; for CC50: read-out: LC50 (the source's name)
DU-145 = assay: Cytotoxicity against Homo sapiens (human) DU145 cells after 48 hr by sulforhodamine B assay; details: DU-145, 48 h
MCF7 [4] = assay: Cytotoxicity against Homo sapiens (human) MCF7 cells assessed as cell growth at 10^-4 M after 48 hr by Alamar blue assay; details: MCF7, 48 h, read-out: Activity
NCI-H460 [5] = assay: Cytotoxicity against Homo sapiens (human) NCI-H460 cells assessed as cell growth at 10^-4 M after 48 hr by Alamar blue assay; details: NCI-H460, 48 h, read-out: Activity
OVCAR-4 = assay: Cytotoxicity against Homo sapiens (human) OVCAR4 cells after 48 hr by sulforhodamine B assay; details: OVCAR-4, 48 h
HCC 2998 = assay: Cytotoxicity against Homo sapiens (human) HCC2998 cells after 48 hr by sulforhodamine B assay; details: HCC 2998, 48 h; for CC50: read-out: LC50 (the source's name)
K562 = assay: Cytotoxicity against Homo sapiens (human) K562 cells after 48 hr by sulforhodamine B assay; details: K562, 48 h; for CC50: read-out: LC50 (the source's name)
SN12C = assay: Cytotoxicity against Homo sapiens (human) SN12C cells after 48 hr by sulforhodamine B assay
PC-3 = assay: Cytotoxicity against Homo sapiens (human) PC3 cells after 48 hr by sulforhodamine B assay; details: PC-3, 48 h
HOP-92 = assay: Cytotoxicity against Homo sapiens (human) HOP92 cells after 48 hr by sulforhodamine B assay; details: HOP-92, 48 h; for CC50: read-out: LC50 (the source's name)
T47D = assay: Cytotoxicity against Homo sapiens (human) T47D cells after 48 hr by sulforhodamine B assay

## ClCc1cccc(Cn2cnc3c(Cl)nc(Cl)nc32)c1
TK-10
  GI50: 1.73 µM
  TGI: 3.98 µM
  CC50: 8.91 µM
KM12
  GI50: 1.82 µM
  TGI: 3.8 µM
  CC50: 7.94 µM
M14
  GI50: 1.77 µM
  LC50: 6.45 µM
  TGI: 3.38 µM
MCF7 [1]
  GI50: 2.04 µM
  LC50 (concentration killing 50% of cells): > 100 µM
  TGI: 6.45 µM
SK-MEL-5
  GI50: 1.58 µM
  LC50: 5.88 µM
  TGI: 3.02 µM
NCI-H226
  GI50: 3.23 µM
  TGI: 10 µM
  CC50: 40.7 µM
RPMI-8226
  GI50: 3.31 µM
  TGI: > 100 µM
RPMI-8226; read-out: LC50 (the source's name)
  CC50: > 100 µM
LOX IMVI
  GI50: 1.69 µM
  LC50: 6.91 µM
  TGI: 3.38 µM
A549
  GI50: 3.09 µM
  TGI: 10 µM
  CC50: 52.5 µM
[2]
  GI50: 2.39 µM
  LC50 (concentration killing 50% of cells): > 100 µM
  TGI: 5.24 µM
HT-29
  GI50: 2.39 µM
  TGI: > 100 µM
  CC50: > 100 µM
NCI-H23
  GI50: 2.13 µM
  TGI: 5.12 µM
  CC50: 22.4 µM
MDA-MB-435
  GI50: 1.69 µM
  LC50: 6.31 µM
  TGI: 3.23 µM
SK-MEL-28
  GI50: 2.34 µM
  LC50 (concentration killing 50% of cells): > 100 µM
  TGI: 5.37 µM
IGROV-1
  GI50: 2.29 µM
  LC50: 19.9 µM
  TGI: 5.12 µM
UACC-257
  GI50: 1.86 µM
  LC50 (concentration killing 50% of cells): 6.45 µM
  TGI: 3.46 µM
NCI-H460 [3]
  GI50: 2.34 µM
  TGI: 6.31 µM
  CC50: > 100 µM
A498
  GI50: 2.39 µM
  LC50 (lethal concentration, 50% cell kill): 27.5 µM
  TGI: 6.6 µM
UO-31
  GI50: 1.58 µM
  LC50 (concentration causing 50% net cell kill): 5.88 µM
  TGI: 3.09 µM
U-251
  GI50: 1.69 µM
  LC50 (concentration killing 50% of cells): 5.62 µM
  TGI: 3.09 µM
Hs-578T
  GI50: 1.99 µM
  TGI: 4.36 µM
HCT-15
  GI50: 2.39 µM
  TGI: 6.91 µM
  CC50: > 100 µM
DU-145
  GI50: 1.58 µM
  LC50: 5.62 µM
  TGI: 2.95 µM
MCF7 [4]
  growth at 100 µM: 0%
NCI-H460 [5]
  growth at 100 µM: 0%
OVCAR-4
  GI50: 5.49 µM
  LC50 (concentration killing 50% of cells): 61.7 µM
  TGI: 19.9 µM
HCC 2998
  GI50: 1.62 µM
  TGI: 3.16 µM
  CC50: 6.16 µM
K562
  GI50: 1.58 µM
  TGI: > 100 µM
  CC50: > 100 µM
SN12C
  GI50: 2.13 µM
  LC50 (50% lethal concentration): 11.8 µM
  TGI: 4.67 µM
PC-3
  GI50: 2.39 µM
  LC50 (concentration causing 50% cell kill): 55 µM
  TGI: 5.01 µM
HOP-92
  GI50: 1.82 µM
  TGI: 3.63 µM
  CC50: 7.08 µM
T47D
  GI50: 1.95 µM
  LC50: > 100 µM
  TGI: 4.46 µM

## ClCc1ccccc1Cn1cnc2nc(Cl)nc(Cl)c21
TK-10
  GI50: 19.5 µM
  TGI: 33.9 µM
  CC50: 60.2 µM
KM12
  GI50: 11.7 µM
  TGI: 25.7 µM
  CC50: 56.2 µM
M14
  GI50: 1.86 µM
  LC50: 6.45 µM
  TGI: 3.46 µM
MCF7 [1]
  GI50: 1.04 µM
  LC50 (concentration killing 50% of cells): > 100 µM
  TGI: 2.57 µM
SK-MEL-5
  GI50: 0.74 µM
  LC50: 5.49 µM
  TGI: 2.18 µM
NCI-H226
  GI50: 2.13 µM
  TGI: 6.76 µM
  CC50: 28.2 µM
RPMI-8226
  GI50: 0.21 µM
  TGI: 0.63 µM
LOX IMVI
  GI50: 0.16 µM
  LC50: 0.72 µM
  TGI: 0.35 µM
A549
  GI50: 2.81 µM
  TGI: 5.75 µM
  CC50: > 100 µM
[2]
  GI50: 2.34 µM
  LC50 (concentration killing 50% of cells): > 100 µM
  TGI: 5.01 µM
HT-29
  GI50: 0.4 µM
  TGI: > 100 µM
  CC50: > 100 µM
NCI-H23
  GI50: 19.1 µM
  TGI: 40.7 µM
  CC50: 87.1 µM
MDA-MB-435
  GI50: 16.6 µM
  LC50: 58.9 µM
  TGI: 30.9 µM
SK-MEL-28
  GI50: 0.35 µM
  LC50 (concentration killing 50% of cells): > 100 µM
  TGI: > 100 µM
IGROV-1
  GI50: 2.88 µM
  LC50: 9.54 µM
  TGI: 5.24 µM
UACC-257
  GI50: 1.99 µM
  LC50 (concentration killing 50% of cells): 8.7 µM
  TGI: 4.16 µM
NCI-H460 [3]
  GI50: 2.39 µM
  TGI: 5.88 µM
  CC50: > 100 µM
A498
  GI50: 2.51 µM
  LC50 (lethal concentration, 50% cell kill): 19.5 µM
  TGI: 5.88 µM
UO-31
  GI50: 1.73 µM
U-251
  GI50: 0.33 µM
  LC50 (concentration killing 50% of cells): 3.63 µM
  TGI: 1.17 µM
Hs-578T
  GI50: 0.67 µM
  LC50: > 100 µM
  TGI: 2.57 µM
HCT-15
  GI50: 0.19 µM
  TGI: 0.43 µM
  CC50: 0.95 µM
DU-145
  LC50: 7.24 µM
MCF7 [4]
  growth at 100 µM: 0%
NCI-H460 [5]
  growth at 100 µM: 0%
OVCAR-4
  GI50: 2.13 µM
  LC50 (concentration killing 50% of cells): > 100 µM
  TGI: 5.12 µM
HCC 2998
  GI50: 18.6 µM
  TGI: 35.5 µM
  CC50: 66.1 µM
K562
  GI50: 0.25 µM
  TGI: 0.69 µM
  CC50: > 100 µM
SN12C
  GI50: 1.17 µM
  LC50 (50% lethal concentration): 5.62 µM
  TGI: 2.57 µM
PC-3
  GI50: 0.75 µM
  TGI: 2.57 µM
HOP-92
  GI50: 1.14 µM
  TGI: 2.81 µM
  CC50: > 100 µM
T47D
  GI50: 0.58 µM
  LC50: > 100 µM
  TGI: 5.24 µM
